From patent US20120196899A1, “METHODS AND PRODUCTS FOR TREATING INFLAMMATION” (Rock Creek Pharmaceuticals, Inc., priority 2010, published 2012)
Values joined by “and” are separate entries in the source; they are usually repeats but may differ in a detail not shown here. Equal values may be shown once.

How the values were obtained:
[1] = Body weights, weight gain and food consumption over 14 days after single i.v. dose; type: in vivo, Sprague-Dawley rats
Description: Body weight and food consumption was measured daily for 14 days. On day 15, urine was collected on all surviving animals. The animals were euthanized and bled via cardiac puncture, and blood was collected for analysis. Tissues were collected, weighed, evaluated for gross abnormalities, and stored in 10% neutral-buffered formalin.
All animals were observed daily.

Hematology, day 15 = type: in vivo, Sprague-Dawley rats
Source text: On day 15, urine was collected on all surviving animals for urinalysis. The animals were euthanized and bled via cardiac puncture. Blood was collected for hematology, clinical chemistry, and coagulation analysis. Tissues were collected, weighed, and stored in 10% neutral-buffered formalin for possible future analysis.

[2] = test system: LPS-induced IL-1β release; test: LPS-induced IL-1β release in whole human blood; type: cell-based
Description: Whole human blood was treated with LPS to stimulate inflammatory responses. […] The inflammatory molecule IL-1β was measured after 16 hours.

[3] = anatabine 0.1 mg/kg single i.v., Male
[4] = anatabine 0.75 mg/kg single i.v., Female
[5] = anatabine 0.75 mg/kg single i.v., Male
[6] = anatabine 0.75 mg/kg, individual animals C1-C10 (M, F)

SMILES: C1=CCC(c2cccnc2)NC1 (racemic) [Anatabine, 1,2,3,6-tetrahydro-[2,3′]bipyridinyl]
- Mean weigth increase by day 14 ([1]; anatabine 0.1 mg/kg single i.v., Female): 39.0 g
- Mean food consumption/day [1, 3]: 31.0 g
- Mean weigth increase by day 14 [1, 3]: 132.5 g
- Mean food consumption/day [1, 4]: 19.7 g
- Mean weigth increase by day 14 [1, 4]: 43.1 g
- Mean food consumption/day [1, 5]: 27.8 g
- Mean weigth increase by day 14 [1, 5]: 111.6 g
- MCH (Hematology, day 15; anatabine 0.1 mg/kg, individual animals B1-B10 (M, F)): 21.9 UUG and 21.8 UUG
- MCH (Hematology, day 15; [6]): 20.3 UUG and 21 UUG and 22 UUG and 19.9 UUG
- MCHC (Hematology, day 15; [6]): 34.2% and 34.3%
- EOSINOPHIL (Hematology, day 15; female, 0.1 mg/kg, group mean): 0.0%
- HCT (Hematology, day 15; female, 0.1 mg/kg, group mean): 46.4%
- LYMPHOCYTE (Hematology, day 15; female, 0.1 mg/kg, group mean): 90.2%
- MCHC (Hematology, day 15; female, 0.1 mg/kg, group mean): 33.7%
- MCV (Hematology, day 15; female, 0.1 mg/kg, group mean): 60.0 fL
- MONOCYTE (Hematology, day 15; female, 0.1 mg/kg, group mean): 1.8%
- NEUTROPHIL SEG (Hematology, day 15; female, 0.1 mg/kg, group mean): 8.0%
- PLATELET COUNT (Hematology, day 15; female, 0.1 mg/kg, group mean): 997300 µL⁻¹
- RBC (Hematology, day 15; female, 0.1 mg/kg, group mean): 7.8e+06 µL⁻¹
- RETICULOCYTE COUNT (Hematology, day 15; female, 0.1 mg/kg, group mean): 4.5%
- WBC (Hematology, day 15; female, 0.1 mg/kg, group mean): 9300 µL⁻¹
- EOSINOPHIL (Hematology, day 15; female, 0.75 mg/kg, group mean): 0.0%
- HCT (Hematology, day 15; female, 0.75 mg/kg, group mean): 45.2%
- HGB (Hematology, day 15; female, 0.75 mg/kg, group mean): 15.4 g/dL
- LYMPHOCYTE (Hematology, day 15; female, 0.75 mg/kg, group mean): 90.6%
- MCV (Hematology, day 15; female, 0.75 mg/kg, group mean): 59.8 fL
- MONOCYTE (Hematology, day 15; female, 0.75 mg/kg, group mean): 0.8%
- NEUTROPHIL SEG (Hematology, day 15; female, 0.75 mg/kg, group mean): 8.6%
- PLATELET COUNT (Hematology, day 15; female, 0.75 mg/kg, group mean): 1.2696e+06 µL⁻¹
- RBC (Hematology, day 15; female, 0.75 mg/kg, group mean): 7.5e+06 µL⁻¹
- RETICULOCYTE COUNT (Hematology, day 15; female, 0.75 mg/kg, group mean): 3.3%
- WBC (Hematology, day 15; female, 0.75 mg/kg, group mean): 10300 µL⁻¹
- mean corpuscular volume (MCV) and mean corpuscular hemoglobin (MCH) (Hematology, day 15; females, anatabine […], nicotine 0.75 mg/kg single i.v.): small, but statistically significant decreases
- EOSINOPHIL (Hematology, day 15; male, 0.1 mg/kg, group mean): 0.2%
- HCT (Hematology, day 15; male, 0.1 mg/kg, group mean): 47.1%
- HGB (Hematology, day 15; male, 0.1 mg/kg, group mean): 15.8 g/dL
- LYMPHOCYTE (Hematology, day 15; male, 0.1 mg/kg, group mean): 89.2%
- MCV (Hematology, day 15; male, 0.1 mg/kg, group mean): 63.4 fL
- MONOCYTE (Hematology, day 15; male, 0.1 mg/kg, group mean): 2.0%
- NEUTROPHIL SEG (Hematology, day 15; male, 0.1 mg/kg, group mean): 8.6%
- PLATELET COUNT (Hematology, day 15; male, 0.1 mg/kg, group mean): 1.2486e+06 µL⁻¹
- RBC (Hematology, day 15; male, 0.1 mg/kg, group mean): 7.4e+06 µL⁻¹
- RETICULOCYTE COUNT (Hematology, day 15; male, 0.1 mg/kg, group mean): 5.5%
- WBC (Hematology, day 15; male, 0.1 mg/kg, group mean): 15600 µL⁻¹
- EOSINOPHIL (Hematology, day 15; male, 0.75 mg/kg, group mean): 0.0%
- HCT (Hematology, day 15; male, 0.75 mg/kg, group mean): 45.8%
- LYMPHOCYTE (Hematology, day 15; male, 0.75 mg/kg, group mean): 88.8%
- MCHC (Hematology, day 15; male, 0.75 mg/kg, group mean): 34.0%
- MCV (Hematology, day 15; male, 0.75 mg/kg, group mean): 61.4 fL
- MONOCYTE (Hematology, day 15; male, 0.75 mg/kg, group mean): 1.4%
- NEUTROPHIL SEG (Hematology, day 15; male, 0.75 mg/kg, group mean): 9.8%
- PLATELET COUNT (Hematology, day 15; male, 0.75 mg/kg, group mean): 1.3258e+06 µL⁻¹
- RBC (Hematology, day 15; male, 0.75 mg/kg, group mean): 7.5e+06 µL⁻¹
- RETICULOCYTE COUNT (Hematology, day 15; male, 0.75 mg/kg, group mean): 4.4%
- WBC (Hematology, day 15; male, 0.75 mg/kg, group mean): 12100 µL⁻¹
- IL-1β production over time ([2]; LPS-stimulated human blood, repeated measurement (Example 15)): rapid and continuous effect on the suppression
- accumulation of IL-1β ([2]; LPS-treated whole human blood, 16 hours (Example 13)): reduced accumulation of IL-1β
- accumulation of IL-1β over dose response ([2]; LPS-treated whole human blood, 16 hours (Example 14)): reduced accumulation of IL-1β
